{"source": "paper PMC9305975", "about": "(Journal of the American Chemical Society, 2022)", "target": "VcRibB (RibB, 3,4-dihydroxy-2-butanone 4-phosphate synthase) (Vibrio cholerae, UniProt Q9KKP2)", "sequence (Q9KKP2 whole entry)": "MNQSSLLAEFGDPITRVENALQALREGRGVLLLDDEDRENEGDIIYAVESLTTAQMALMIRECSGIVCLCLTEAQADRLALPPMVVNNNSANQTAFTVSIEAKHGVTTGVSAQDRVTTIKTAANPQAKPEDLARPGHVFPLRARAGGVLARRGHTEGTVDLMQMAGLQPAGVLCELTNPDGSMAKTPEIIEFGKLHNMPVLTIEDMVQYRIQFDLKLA", "conditions": "two Mn2+ in the active site; non-substrate analogue"}
{"molecule": "O=C(CO)[C@H](O)[C@@H](O)COP(=O)(O)O", "note": "[L-xylulose 5-phosphate]", "values": [{"measurement": "X-ray crystal structure; EPR", "result": "L-xylulose 5-phosphate (L-Xy5P), showing two manganese ions and a significantly different, more twisted binding"}]}
